According to article PMC10857906, “PROTAC-mediated NR4A1 degradation as a novel strategy for cancer immunotherapy” (The Journal of Experimental Medicine, 2024):

What was measured:
[1] = tested on: OT-1 CD8^+ Texh cells; test: T cell exhaustion in vitro, mouse OT-1 CD8^+ T cells; type: cell-based; conditions: 500 nM, 48 h
Protocol: We conducted experiments involving the isolations and treatments of CD8^+ T cells from both OT-1 mice (C57BL/6-Tg(TcraTcrb)1100Mjb/J; Jackson Laboratories) and T cells from human PBMCs. CD8^+ T cells were isolated from OT-1 mice using the EasySep Mouse CD8 T Cell Isolation Kit, followed by daily treatment with 10 ng/ml ovalbumin (257–264) (S7951-1MG; Sigma-Aldrich) for specified durations. After 3 days of ovalbumin treatment, OT-1 CD8^+ T cells were activated, and after 7 days of treatment, they reached a state of exhaustion. Human T cells were isolated from PBMCs using the EasySep Human CD3 Positive Selection Kit II (17851; STEMCELL) and cultured with Dynabeads (Cell/Dynabeads: 1:1, A56992; Thermo Fisher Scientific) for 3 days to induce activation and for 7 days to induce exhaustion. Both mouse and human T cells received a treatment of 500 nM NR-V04 2 days prior to harvesting. To characterize the T cell subtypes, we employed specific flow cytometry antibodies and conducted flow cytometry analysis.
Mouse tumors were excised and ∼200 mg of tumor tissue was enzymatically and mechanically digested using the mouse Tumor Dissociation Kit (Miltenyi Biotec) to obtain a single-cell suspension. […] Flow cytometry was performed on a three laser Cytek Aurora Cytometer (Cytek Biosciences) and analyzed using FlowJo software (BD Biosciences). […]

[2] = molecular target: T1, VHL (Homo sapiens, UniProt P40337); test: VHL protein level after treatment (immunoblotting); type: cell-based; conditions: human melanoma cell lines, 16 h
T1 construct: endogenous in cells; host or cells: CHL-1, A375, WM164, M229 human melanoma cells
T1 sequence (P40337 whole entry): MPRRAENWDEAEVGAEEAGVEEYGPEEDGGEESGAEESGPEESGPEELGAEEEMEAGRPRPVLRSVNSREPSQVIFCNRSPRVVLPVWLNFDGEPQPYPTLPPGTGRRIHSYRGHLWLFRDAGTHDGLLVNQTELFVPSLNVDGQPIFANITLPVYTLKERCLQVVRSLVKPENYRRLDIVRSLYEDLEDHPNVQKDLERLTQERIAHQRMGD
Protocol: Samples were lysed using radioimmunoprecipitation assay buffer (RIPA) lysis buffer (150 mM NaCl, 5 mM EDTA, 50 mM Tris pH 8.0, 0.5% sodium deoxycholate, 1% NP-40, 0.1% SDS) supplemented with 1 mM dithiothreitol and protease inhibitors. The lysates were separated by SDS-PAGE and analyzed using standard western blotting procedures ([Khan et al., 2019]). Antibodies: human NR4A1 (ab153914, 1:1,000; Abcam), mouse NR4A1 (14-5965-82, 1:1,000; Invitrogen), NR4A2 (AV38753, 1:1,000; Sigma-Aldrich), NR4A3 (TA804893, 1: 1,000; Thermo Fisher Scientific), VHL (68547, 1:1,000; Cell Signaling), β-actin (13E5, 1:5,000; Cell Signaling), β-tubulin (9F3, 1: 5,000; Cell Signaling), and GAPDH (D16H11, 1: 5,000; Cell Signaling) were employed for protein detection.

[3] = Toxicity testing in non-tumor-bearing mice; type: in vivo, C57BL/6J mice
Protocol: For syngeneic tumor models, 5 × 10^5 cells MC38, Yumm1.7, and Yummer1.7, 1 × 10^5 cells of B16F10 were resuspended in PBS and implanted into 7–9-wk-old mice subcutaneously. For the tumor inhibition experiment, mice were treated with 1.8 mg/kg NR-V04 or 0.75 mg/kg celastrol by i.p. injection twice weekly. For the immune profile experiment, once tumors reached 0.5 cm in diameter, mice were treated with 1.8 mg/kg NR-V04 by i.p. injection twice weekly. For the toxicity experiment, male and female non-tumor-bearing mice were treated with 2 mg/kg NR-V04 for two doses in the first week and 5 mg/kg for another two doses in the second week. Blood samples were taken from the submandibular (facial) vein before each treatment and 42 days later for hematological analysis, and body weight was measured twice per week up to day 42. Mice were euthanized in accordance with the IACUC protocol once the largest tumors reached 2 cm in diameter, and tissues were collected for further analysis.
Mouse blood was prepared in microcentrifuge tubes containing PBS with 10 mM EDTA. Blood indices were analyzed using an automated hematology analyzer (Element HT5; Heska).
For H&E staining, mouse tissues were fixed in 10% formalin (SF98-4; Thermo Fisher Scientific) processed in the University of Florida Molecular Pathology Core. H&E staining was conducted using standard procedures. The sections were hydrated through xylene and a series of ethanol, followed by staining with H&E on slides.

CC1=C(O)C(=O)C=C2C1=CC=C1[C@@]2(C)CC[C@@]2(C)[C@@H]3C[C@](C)(C(=O)NCCOCCOCCOCCOCC(=O)N[C@H](C(=O)N4C[C@H](O)C[C@H]4C(=O)N[C@@H](C)c4ccc(-c5scnc5C)cc4)C(C)(C)C)CC[C@]3(C)CC[C@]12C [NR-V04]
CD8^+ Texh cells (PD1^+Tim3^+) [1]: significant reduction in CD8^+ Texh cells | VHL protein level [2]: accumulation of VHL protein | histology (H&E) of kidney, liver and small intestine ([3]; male and female mice, day 42): did not induce tissue damage | body weight ([3]; male and female mice, two doses of 2 mg/kg and two doses of 5 mg/kg over 2 wk, 42 days): no significant change in body weight | hematological parameters (complete blood counts) ([3]; two doses of 2 mg/kg and two doses of 5 mg/kg, day 0, 7, 14, 42): no significant changes in hematological parameters
